In ChEMBL document CHEMBL6115029, “Discovery of Daraxonrasib (RMC-6236), a Potent and Orally Bioavailable RAS(ON) Multi-selective, Noncovalent Tri-complex Inhibitor for the Treatment of Patients with Multiple RAS-Addicted Cancers” (J Med Chem, 2025):
Converted amounts (≈) assume the structure as drawn.

What was measured:
[1] = target: Peptidyl-prolyl cis-trans isomerase A (Homo sapiens, UniProt P62937); assay: Binding affinity to Avi-tagged Cyclophilin A (unknown origin) assessed as dissociation constant by SPR analysis
[2] = Inhibition of 6His-tagged KRAS G12D mutant(1 to 169 residues)/GST-tagged GMPPNP-bound BRAF RBD (155 to 229 reisudes)/Cyclophilin A (unknown origin) tri-complex protein-protein interaction incubated for 3 hrs by TR-FERT based disruption assay; parameters: species or system Homo sapiens
[3] = Inhibition of 6His-tagged KRAS G12C mutant(1 to 169 residues)/GST-tagged GMPPNP-bound BRAF RBD (155 to 229 reisudes)/Cyclophilin A (unknown origin) tri-complex protein-protein interaction incubated for 3 hrs by TR-FERT based disruption assay; parameters: species or system Homo sapiens
[4] = Inhibition of 6His-tagged wildtype KRAS (1 to 169 residues)/GST-tagged GMPPNP-bound BRAF RBD (155 to 229 reisudes)/Cyclophilin A (unknown origin) tri-complex protein-protein interaction incubated for 3 hrs by TR-FERT based disruption assay; parameters: species or system Homo sapiens
CAPAN-1 = assay: Cytotoxicity against human CAPAN-1 cells harboring KRAS G12V mutant cultured as 2D cells assessed as reduction in cell viability incubated for 120 hrs by CellTiter-Glo luminescence assay; assay type: functional, cell-based; settings: CAPAN-1, 120 h
ASPC1 = assay: Cytotoxicity against human ASPC1 cells harboring KRAS G12D mutant cultured as 2D cells assessed as reduction in cell viability incubated for 120 hrs by CellTiter-Glo luminescence assay; assay type: functional, cell-based; settings: ASPC1, 120 h
NCI-H358 = assay: Cytotoxicity against human NCI-H358 cells harboring KRAS G12C mutant cultured as 2D cells assessed as reduction in cell viability incubated for 120 hrs by CellTiter-Glo luminescence assay; assay type: functional, cell-based; settings: NCI-H358, 120 h
NCI-H1975 = assay: Cytotoxicity against human NCI-H1975 cells harboring wildtype KRAS cultured as 2D cells assessed as reduction in cell viability incubated for 120 hrs by CellTiter-Glo luminescence assay; assay type: functional, cell-based; settings: NCI-H1975, 120 h
[5] = Inhibition of ERK1/2 phosphorylation in human CAPAN-1 cells harboring KRAS G12V mutant incubated for 4 hrs by AlphaLISA assay; assay type: cell-based; settings: CAPAN-1, 4 h
[6] = Inhibition of ERK1/2 phosphorylation in human NCI-H358 cells harboring KRAS G12C mutant incubated for 4 hrs by AlphaLISA assay; assay type: cell-based; settings: NCI-H358, 4 h
[7] = Inhibition of ERK1/2 phosphorylation in human ASPC1 cells harboring KRAS G12D mutant incubated for 4 hrs by AlphaLISA assay; assay type: cell-based; settings: ASPC1, 4 h
[8] = Metabolic stability in mouse liver microsomes assessed as half-life at 2 uM measured upto 60 mins in presence of NADPH by LC-MS/MS analysis; assay type: ADME, Microsome
A-375 = assay: Cytotoxicity against human A-375 cells assessed as reduction in cell viability incubated for 120 hrs by CellTiter-Glo luminescence assay; assay type: functional, cell-based; settings: A-375, 120 h
[9] = Kinetic solubility of compound in PBS at pH 7.4 measured after 5 hrs by UV analysis; assay type: physicochemical; settings: read-out: Kinetic_solubility
[10] = Apparent permeability across apical to basolateral side in human Caco-2 cells at 5 uM incubated for 2 hrs by LC-MS/MS analysis; assay type: ADME, cell-based
[11] = Efflux ratio of apparent permeability in human Caco-2 cells at 5 uM incubated for 2 hrs by LC-MS/MS analysis; assay type: ADME, cell-based
[12] = Clearance in female BALB/c mouse at 1 mg/kg, iv measured after 24 hrs by LC-MS/MS analysis; assay type: ADME, organism-based; settings: in vivo
[13] = Half-life in female BALB/c mouse at 1 mg/kg, iv measured after 24 hrs by LC-MS/MS analysis; assay type: ADME, organism-based; settings: in vivo
[14] = Oral bioavailability in female BALB/c mouse at 10 mg/kg measured after 24 hrs by LC-MS/MS analysis; assay type: ADME, organism-based; settings: in vivo
[15] = Inhibition of 6His-tagged KRAS G12V mutant(1 to 169 residues)/GST-tagged GMPPNP-bound BRAF RBD (155 to 229 reisudes)/Cyclophilin A (unknown origin) tri-complex protein-protein interaction incubated for 3 hrs by TR-FERT based disruption assay; parameters: species or system Homo sapiens
[16] = Lipophilicity, logD of compound at pH 7.4 by Agilent 1290 II uPLC analysis; assay type: physicochemical; settings: buffer

Peptidyl-prolyl cis-trans isomerase A, sequence (P62937 whole entry, the tested form may be a part): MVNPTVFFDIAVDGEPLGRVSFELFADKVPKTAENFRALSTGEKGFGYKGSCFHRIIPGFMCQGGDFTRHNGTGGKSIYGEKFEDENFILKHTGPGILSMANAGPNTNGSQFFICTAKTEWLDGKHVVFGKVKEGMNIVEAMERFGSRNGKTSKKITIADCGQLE

CCn1c(-c2cccnc2[C@H](C)OC)c2c3cc(ccc31)-c1csc(n1)C[C@H](NC(=O)[C@H](C(C)C)N(C)C(=O)N(C)C)C(=O)N1CCC[C@H](N1)C(=O)OCC(C)(C)C2
Kd [1]: 468 nM | IC50 [2]: 548 nM | IC50 [3]: 58 nM | IC50 [4]: 108 nM | EC50 (CAPAN-1): 18 nM | IC50 (ASPC1): 75 nM | EC50 (NCI-H358): 6 nM | EC50 (NCI-H1975): 26 nM | EC50 [5]: 3 nM | EC50 [6]: 11 nM | EC50 [7]: 42 nM | half-life at 2 µM [8]: 0.0833 h | EC50 (A-375): 5820 nM | solubility kinetic at 5 h [9]: 49 µM (≈ 39.9 µg/mL) | Papp A→B at 2 h, 5 µM [10]: 0.94 ×10⁻⁶ cm/s | efflux ratio at 2 h, 5 µM [11]: 2.9 | clearance [12]: 55 mL/min/kg | half-life [13]: 0.7 h | bioavailability [14]: 0.8%

CCn1c(-c2cccnc2[C@H](C)OC)c2c3cc(ccc31)-c1csc(n1)C[C@H](NC(=O)C1CC1)C(=O)N1CCC[C@H](N1)C(=O)OCC(C)(C)C2
Kd [1]: 18700 nM | IC50 [15]: 301 nM | IC50 [2]: 1950 nM | IC50 [3]: 208 nM | IC50 [4]: 615 nM | EC50 (CAPAN-1): 485 nM | EC50 (ASPC1): 852 nM | EC50 (NCI-H358): 403 nM | EC50 (NCI-H1975): 188 nM | EC50 [5]: 147 nM | EC50 [6]: 166 nM | EC50 [7]: 3410 nM | half-life at 2 µM [8]: 1.57 h | EC50 (A-375): 5950 nM | solubility kinetic at 5 h [9]: 15 µM (≈ 10.5 µg/mL) | Papp A→B at 2 h, 5 µM [10]: 4.3 ×10⁻⁶ cm/s | efflux ratio at 2 h, 5 µM [11]: 1.6 | clearance [12]: 5 mL/min/kg | half-life [13]: 2 h | bioavailability [14]: 53% | logD [16]: 4.8

CCn1c(-c2cccnc2[C@H](C)OC)c2c3cc(ccc31)-c1csc(n1)C[C@H](NC(=O)[C@H]1CCO1)C(=O)N1CCC[C@H](N1)C(=O)OCC(C)(C)C2
Kd [1]: 6520 nM | IC50 [15]: 334 nM | IC50 [2]: 2310 nM | IC50 [3]: 224 nM | IC50 [4]: 628 nM | EC50 (CAPAN-1): 615 nM | EC50 (ASPC1): 1640 nM | EC50 (NCI-H358): 429 nM | EC50 (NCI-H1975): 402 nM | EC50 [5]: 124 nM | EC50 [6]: 952 nM | EC50 [7]: > 10000 nM | half-life at 2 µM [8]: 0.733 h | EC50 (A-375): > 10000 nM | solubility kinetic at 5 h [9]: 5 µM (≈ 3.57 µg/mL) | Papp A→B at 2 h, 5 µM [10]: 3.1 ×10⁻⁶ cm/s | efflux ratio at 2 h, 5 µM [11]: 1.7 | clearance [12]: 3.33 mL/min/kg | half-life [13]: 1.6 h | bioavailability [14]: 44% | logD [16]: 4.3

CCn1c(-c2cc(N3CCN(C)CC3)cnc2[C@H](C)OC)c2c3cc(ccc31)-c1csc(n1)C[C@H](NC(=O)[C@H]1CCO1)C(=O)N1CCC[C@H](N1)C(=O)OCC(C)(C)C2
IC50 [15]: 77 nM | IC50 [2]: 435 nM | IC50 [3]: 50 nM | IC50 [4]: 138 nM | EC50 (CAPAN-1): 14.2 nM | EC50 (ASPC1): 45.2 nM | EC50 (NCI-H358): 22.3 nM | EC50 (NCI-H1975): 7.9 nM | EC50 [5]: 2 nM | EC50 [6]: 10.6 nM | EC50 [7]: 50.1 nM | half-life at 2 µM [8]: > 2 h | EC50 (A-375): 6950 nM | solubility kinetic at 5 h [9]: 117 µM (≈ 95.1 µg/mL) | Papp A→B at 2 h, 5 µM [10]: 0.4 ×10⁻⁶ cm/s | efflux ratio at 2 h, 5 µM [11]: 62 | logD [16]: 4.3

CCn1c(-c2cc(N3CCN(C4CC4)CC3)cnc2[C@H](C)OC)c2c3cc(ccc31)-c1csc(n1)C[C@H](NC(=O)[C@H]1C[C@@H]1C)C(=O)N1CCC[C@H](N1)C(=O)OCC(C)(C)C2
Kd [1]: 396 nM | IC50 [15]: 64 nM | IC50 [2]: 277 nM | IC50 [3]: 50 nM | IC50 [4]: 117 nM | EC50 (CAPAN-1): 8.1 nM | EC50 (ASPC1): 13.9 nM | EC50 (NCI-H358): 3.4 nM | EC50 [5]: 1.3 nM | EC50 [6]: 4.9 nM | EC50 [7]: 15.2 nM | EC50 (A-375): > 10000 nM | solubility kinetic at 5 h [9]: 5 µM (≈ 4.19 µg/mL) | Papp A→B at 2 h, 5 µM [10]: 2.2 ×10⁻⁶ cm/s | logD [16]: 5.3

CCn1c(-c2cccnc2[C@H](C)OC)c2c3cc(ccc31)-c1csc(n1)C[C@H](NC(=O)[C@H]1[C@@H]3COC[C@@H]31)C(=O)N1CCC[C@H](N1)C(=O)OCC(C)(C)C2
Kd [1]: 2420 nM | IC50 [15]: 84 nM | IC50 [2]: 346 nM | IC50 [3]: 51 nM | IC50 [4]: 139 nM | EC50 (CAPAN-1): 69 nM | EC50 (ASPC1): 92 nM | EC50 (NCI-H358): 30 nM | EC50 [5]: 11 nM | EC50 [6]: 26 nM | EC50 [7]: 146 nM | half-life at 2 µM [8]: 0.433 h | EC50 (A-375): > 10000 nM | solubility kinetic at 5 h [9]: 15 µM (≈ 11.1 µg/mL) | Papp A→B at 2 h, 5 µM [10]: 2.3 ×10⁻⁶ cm/s | efflux ratio at 2 h, 5 µM [11]: 7.5 | clearance [12]: 6.67 mL/min/kg | half-life [13]: 2.1 h | bioavailability [14]: 49%
